± gives the expanded uncertainty stated by the source.
Assays:
[1] = Molar enthalpy of transition or fusion; conditions: Crystal; DSC
[2] = Crystal; DTA

CC(=O)c1ccc(C)c2ccccc12 [1-(4-methyl-1-naphthyl) ethanone]
Molar enthalpy of transition or fusion [1]: 3.47 ± 0.112 kcal/mol | Normal melting temperature [2]: 312.00 ± 4 °C
